# The supplement of paper PMC10307832
# How the values were obtained:
# Experiment in all cases: relative viability (nuclei count vs DMSO), 5 days (fraction); higher = more cells survive
# [1] = tested on: NCI-H322M
# Summary of the method: (§1)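 Cells from lung cancer lines were seeded into 1536-well plates and, one day later, dosed by pin tool. Treatments were either a single drug or a fixed dose of an anchor drug with five library-drug doses (not always all listed) in √10 steps. After 5 days, nuclei were stained in a one-step fixation (final 0.05% Triton X-100, 1% formaldehyde, 1 ug/ml Hoechst) and counted on 4× images, and relative viability is the treated-to-vehicle nuclei ratio, as the median of duplicate plates.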
# [2] = tested on: NCI-H1563
# Summary of the method: as §1
# [3] = tested on: NCI-H522
# Summary of the method: as §1
# [4] = tested on: CAL-12T
# Summary of the method: as §1
# [5] = tested on: NCI-H838
# Summary of the method: as §1
# [6] = tested on: NCI-H727
# Summary of the method: as §1
# [7] = tested on: HCC-15
# Summary of the method: as §1
# [8] = tested on: COR-L 105
# Summary of the method: as §1
# [9] = tested on: BEN
# Summary of the method: as §1
# [10] = tested on: SW 900
# Summary of the method: as §1
# [11] = tested on: LU99A
# Summary of the method: as §1
# [12] = tested on: PC-3 [JPC-3]
# Summary of the method: as §1
# [13] = tested on: NCI-H1651
# Summary of the method: as §1
# [14] = tested on: NCI-H460
# Summary of the method: as §1
# [15] = tested on: NCI-H2023
# Summary of the method: as §1
# [16] = tested on: LK-2
# Summary of the method: as §1
# [17] = tested on: HCC-44
# Summary of the method: as §1
# [18] = tested on: NCI-H358
# Summary of the method: as §1
# [19] = tested on: 201T
# Summary of the method: as §1
# [20] = tested on: ABC-1
# Summary of the method: as §1
# [21] = tested on: EMC-BAC-2
# Summary of the method: as §1
# [22] = tested on: EKVX
# Summary of the method: as §1
# [23] = tested on: NCI-H520
# Summary of the method: as §1
compound,measurement,setting,value
Cc1csc(=NC2CCCCC2)n1/N=C/c1ccc(O)c(O)c1O [MIM1] + COc1cccc2cc(-c3nc([C@H]4CC[C@H](C(=O)O)CC4)n4ncnc(N)c34)[nH]c12 [OSI-027] (partner 0.5 µM),relative viability,[1]; first compound 0.2 µM,0.593
same,relative viability,[1]; first compound 0.6325 µM,0.526
same,relative viability,[1]; first compound 2 µM,0.543
same,relative viability,[1]; first compound 6.325 µM,0.508
same,relative viability,[1]; first compound 20 µM,0.288
same,relative viability,[2]; first compound 0.2 µM,0.725
same,relative viability,[2]; first compound 0.6325 µM,0.821
same,relative viability,[2]; first compound 2 µM,0.688
same,relative viability,[2]; first compound 6.325 µM,0.72
same,relative viability,[2]; first compound 20 µM,0.525
same,relative viability,[3]; first compound 0.2 µM,0.761
same,relative viability,[3]; first compound 0.6325 µM,0.578
same,relative viability,[3]; first compound 2 µM,0.717
same,relative viability,[3]; first compound 6.325 µM,0.696
same,relative viability,[3]; first compound 20 µM,0.67
same,relative viability,[4]; first compound 0.2 µM,0.607
same,relative viability,[4]; first compound 0.6325 µM,0.579
same,relative viability,[4]; first compound 2 µM,0.57
same,relative viability,[4]; first compound 6.325 µM,0.445
same,relative viability,[4]; first compound 20 µM,0.143
same,relative viability,[5]; first compound 0.2 µM,0.469
same,relative viability,[5]; first compound 0.6325 µM,0.428
same,relative viability,[5]; first compound 2 µM,0.397
same,relative viability,[5]; first compound 6.325 µM,0.373
same,relative viability,[5]; first compound 20 µM,0.169
same,relative viability,[6]; first compound 0.2 µM,0.619
same,relative viability,[6]; first compound 0.6325 µM,0.712
same,relative viability,[6]; first compound 2 µM,0.599
same,relative viability,[6]; first compound 6.325 µM,0.552
same,relative viability,[6]; first compound 20 µM,0.338
same,relative viability,[7]; first compound 0.2 µM,0.747
same,relative viability,[7]; first compound 2 µM,0.778
same,relative viability,[7]; first compound 6.325 µM,0.469
same,relative viability,[7]; first compound 20 µM,0.102
same,relative viability,[8]; first compound 0.2 µM,0.733
same,relative viability,[8]; first compound 0.6325 µM,0.725
same,relative viability,[8]; first compound 2 µM,0.596
same,relative viability,[8]; first compound 6.325 µM,0.582
same,relative viability,[8]; first compound 20 µM,0.552
same,relative viability,[9]; first compound 0.2 µM,0.309
same,relative viability,[9]; first compound 0.6325 µM,0.315
same,relative viability,[9]; first compound 2 µM,0.28
same,relative viability,[9]; first compound 6.325 µM,0.318
same,relative viability,[9]; first compound 20 µM,0.298
same,relative viability,[10]; first compound 0.2 µM,0.54
same,relative viability,[10]; first compound 0.6325 µM,0.789
same,relative viability,[10]; first compound 2 µM,0.703
same,relative viability,[10]; first compound 6.325 µM,0.441
same,relative viability,[10]; first compound 20 µM,0.191
same,relative viability,[11]; first compound 0.2 µM,0.274
same,relative viability,[11]; first compound 0.6325 µM,0.29
same,relative viability,[11]; first compound 2 µM,0.273
same,relative viability,[11]; first compound 6.325 µM,0.288
same,relative viability,[11]; first compound 20 µM,0.233
same,relative viability,[12]; first compound 0.2 µM,0.749
same,relative viability,[12]; first compound 0.6325 µM,0.733
same,relative viability,[12]; first compound 2 µM,0.647
same,relative viability,[12]; first compound 6.325 µM,0.657
same,relative viability,[12]; first compound 20 µM,0.545
same,relative viability,[13]; first compound 0.2 µM,0.745
same,relative viability,[13]; first compound 0.6325 µM,0.806
same,relative viability,[13]; first compound 2 µM,0.63
same,relative viability,[13]; first compound 6.325 µM,0.611
same,relative viability,[13]; first compound 20 µM,0.612
same,relative viability,[14]; first compound 0.2 µM,0.651
same,relative viability,[14]; first compound 0.6325 µM,0.66
same,relative viability,[14]; first compound 2 µM,0.42
same,relative viability,[14]; first compound 6.325 µM,0.423
same,relative viability,[14]; first compound 20 µM,0.0316
same,relative viability,[15]; first compound 0.2 µM,0.422
same,relative viability,[15]; first compound 0.6325 µM,0.501
same,relative viability,[15]; first compound 2 µM,0.305
same,relative viability,[15]; first compound 6.325 µM,0.182
same,relative viability,[15]; first compound 20 µM,0.0588
same,relative viability,[16]; first compound 0.2 µM,0.247
same,relative viability,[16]; first compound 0.6325 µM,0.201
same,relative viability,[16]; first compound 2 µM,0.181
same,relative viability,[16]; first compound 6.325 µM,0.169
same,relative viability,[16]; first compound 20 µM,0.184
same,relative viability,[17]; first compound 0.2 µM,0.699
same,relative viability,[17]; first compound 0.6325 µM,0.5
same,relative viability,[17]; first compound 2 µM,0.271
same,relative viability,[17]; first compound 6.325 µM,0.448
same,relative viability,[17]; first compound 20 µM,0.184
same,relative viability,[18]; first compound 0.2 µM,0.772
same,relative viability,[18]; first compound 0.6325 µM,0.7
same,relative viability,[18]; first compound 2 µM,0.755
same,relative viability,[18]; first compound 6.325 µM,0.447
same,relative viability,[18]; first compound 20 µM,0.128
same,relative viability,[19]; first compound 0.2 µM,0.739
same,relative viability,[19]; first compound 0.6325 µM,0.834
same,relative viability,[19]; first compound 2 µM,0.745
same,relative viability,[19]; first compound 6.325 µM,0.478
same,relative viability,[19]; first compound 20 µM,0.272
same,relative viability,[20]; first compound 0.2 µM,0.481
same,relative viability,[20]; first compound 0.6325 µM,0.46
same,relative viability,[20]; first compound 2 µM,0.388
same,relative viability,[20]; first compound 6.325 µM,0.236
same,relative viability,[20]; first compound 20 µM,0.298
same,relative viability,[21]; first compound 0.2 µM,0.422
same,relative viability,[21]; first compound 0.6325 µM,0.36
same,relative viability,[21]; first compound 2 µM,0.357
same,relative viability,[21]; first compound 6.325 µM,0.344
same,relative viability,[21]; first compound 20 µM,0.253
same,relative viability,[22]; first compound 0.2 µM,0.803
same,relative viability,[22]; first compound 0.6325 µM,0.767
same,relative viability,[22]; first compound 2 µM,0.719
same,relative viability,[22]; first compound 6.325 µM,0.53
same,relative viability,[22]; first compound 20 µM,0.583
same,relative viability,[23]; first compound 0.2 µM,0.245
same,relative viability,[23]; first compound 0.6325 µM,0.22
same,relative viability,[23]; first compound 2 µM,0.249
same,relative viability,[23]; first compound 6.325 µM,0.24
same,relative viability,[23]; first compound 20 µM,0.25
